Earlier results on three molecules are cited in patent publication US20060165671A1, “Novel nutraceutical compositions comprising epigallocatechin gallate” (priority 2002, published 2006).

The conditions of series [1]: glucose intolerant and non-insulin dependent diabetic animals.
The conditions of series [2]: patients with type 2.
Series [3] has as its system muscle and adipose cells in culture.
For series [4] the following is noted: after CoQ10 supplementation, several studies.
Series [5] relates to rat primary hepatocytes. As to conditions: concentrations from about 10 to about 100 μM.
Series [6] concerns pre-adipocyte cells. As to conditions: compared to the specific PPAR-γ agonist ciglitazone.

With “1,2-dithiolane-3-pentaenoic acid [Lipoic acid]”, in series [1], the “basal and insulin-stimulated glucose uptake by skeletal muscles” value is recorded as “raised”. Besides, in series [2], the glucose disposal result is listed as “improves glucose disposal”. In addition, in series [3], the glucose transport entry is on record as “stimulates glucose transport”.

`COC1=C(OC)C(=O)C(C/C=C(\C)CC/C=C(\C)CC/C=C(\C)CC/C=C(\C)CC/C=C(\C)CC/C=C(\C)CC/C=C(\C)CC/C=C(\C)CC/C=C(\C)CCC=C(C)C)=C(C)C1=O` [CoQ10, 6-Decaprenyl-2,3-dimethoxy-5-methyl-1,4-benzoquinone]: the LDL oxidation entry in series [4] is given as “reduced”.

For `CC(C)CCCC(C)CCCC(C)CCCC(C)CC(=O)O` (stereo not drawn) [Phytanic acid, 3,7,11,15-tetramethylhexadecanoic acid], the uptake of glucose entry in series [5] is recorded as “enhances uptake of glucose”. Further, the “differentiation of pre-adipocyte cells into mature adipocytes” value in series [6] is given as “only minor effects”.
